Assay results: patent US8287923B2, “Compositions and methods for treating immune disorders” (priority 2005, dated 2012)

System: NS-SV-AC cells
Assay: TNF-α-induced cytotoxicity, MTT assay
Assay type: cell-based, human
Conditions: cells exposed to TNF-α and EGCG in presence of inhibitor
Procedure: TNF-α cyotoxicity: NS-SV-AC cells (0.5×10<4> cells/well) were seeded in a 96-well microplate and either treated for 24 hr with EGCC as described above (or not treated in the control), in the presence of 100 ng/ml TNFα and 10 μg/ml cyclohexamide. After the treatments, viability was determined by the MTT assay. The cells in each well were washed with 200 μl of phosphate-buffered saline (PBS) and incubated with 100 μl of 2% (w/v) MTT in a solution of 0.05 M Tris-HCl (pH 7.6), 0.5 mM MgCl2, 2.5 mM CoCl2 and 0.25 M disodium succinate at 37° C. for 30 min. Cells were fixed by the addition of 100 μl of 4% (v/v) formalin in 0.2 M Tris-HCl (pH 7.6), and after a 5 min incubation at room temperature liquid was removed and the wells were allowed to dry. Each well was rinsed with 200 μl water and cells were solubilized by the addition of 100 μl of 6.35% (v/v) 0.1 N NaOH in DMSO. The colored formazan product was measured by a Thermo MAX micro plate reader (Molecular Devices Corp. Sunnyvale, Calif.) at a wavelength of 562 nm.
We examined the effects of EGCG on TNF-α-induced cytotoxicity of the human salivary gland acinar cell line NS-SV-AC using the MTT assay.
To examine the role of activation of the p38 signaling pathway in reducing TNF-α-induced cytotoxicity, cells were exposed to TNF-[alpha] and EGCG in the presence of either the p38 MAPK inhibitor SB203580 or the MEK inhibitor PD98059.

| SMILES | effect on protection by EGCG against TNF-α-induced loss of cell viability |
| --- | --- |
| C[S+]([O-])c1ccc(-c2nc(-c3ccncc3)c(-c3ccc(F)cc3)[nH]2)cc1 (centres unmarked) [SB203580] | significantly reduced the protective effect of EGCG |
| COc1cccc(-c2cc(=O)c3ccccc3o2)c1N [PD98059] | significantly reduced the protective effect of EGCG |
